Legend:
[1] = system: oHSV-1 (G207) in U87 tumors; assay: U87 xenograft, C16 with G207: viral DNA qPCR and immunohistochemistry of tumors; assay type: in vivo, mice; settings: 5 mg/kg C16, day 13
Protocol: FIG. 14A is a bar graph showing that C16 triggers oHSV-1 protein expression in microglia/macrophages and enhances virus concentration in glioblastoma in vivo. U87 xenograft mice were treated with vehicle or 5 mg/kg C16 with or without 6×10^6 PFU/ml oHSV-1 (G207) viruses (n=2). Two doses of G207 or vehicle and 4 doses (in every 3 or 4 days) of C16 was administered in total. Tumors were harvested at day 13 post-treatment. Total genomic DNA was extracted from the harvested tumors (n=2) and viral DNA (ICP27) was measured by qPCR (normalized to β-actin). Data shown are relative 2-ΔΔCT value±SE.
5 to 6 weeks old female athymic nude mice were obtained from Harlon laboratories. Human glioma U87 cells were implanted subcutaneously into the lower flank. When tumor size reached ˜75 to 100 mm3, vehicle or C16 (5 mg/kg) was administered intraperitoneally (IP). 2 days (FIG. 14) or 4 days (FIG. 15) after initial C16 administration, vehicle or oHSV-1 were injected intratumourally. Tumor volume was then measured using a caliper (Height×Length×Wide/2). At the end of the experiment, mice were euthanized by using CO2 asphyxiation.
DNA was extracted from 4% paraformaldehyde fixed tumor tissues by using an EZNA tissue DNA kit (Omega Bioteck). […]

[2] = system: subcutaneous U87 tumor; assay: Subcutaneous U87 tumor bearing mice, tumor size after nifuroxazide; assay type: in vivo; settings: injected in the peritoneum, after 7 days treatment
Protocol: FIGS. 1A-1B are graphs that show an anti-tumor effect of nifuroxazide. (FIG. 1A) Cells were treated with indicated concentration of nifuroxazide for 72 hours. Cytotoxicity was measured by using MTT assay. (FIG. 1B) Subcutaneously U87 tumor bearing mice were peritoneally injected with indicated doses of nifuroxazide. Tumor size was measured using calipers at day 7 post nifuroxazide treatment.
In this example, the antitumor effect of nifuroxazide is evaluated in different tumor cells. Cells were treated with nifuroxazide for 72 hours (FIG. 1A). […] To verify the anti-tumor efficacy of nifuroxazide in vivo, animals with subcutaneous U87 tumor implants were injected in the peritoneum with vehicle, 1 mg/kg nifuroxazide and 50 mg/kg nifuroxazide. […] Tumor volume was reduced around 25% and 60% after 7 days treatment with 1 mg/kg nifuroxazide and 50 mg/kg nifuroxazide respectively (FIG. 1B).

| SMILES | oHSV-1 titer in the tumor mass (viral DNA copy number, qPCR) [1] | Tumor volume was reduced ([2]; 1 mg/kg nifuroxazide) | Tumor volume was reduced ([2]; 50 mg/kg nifuroxazide) |
| --- | --- | --- | --- |
| O=C1Nc2ccc3ncsc3c2/C1=C/c1c[nH]cn1 [C16, 6,8-Dihydro-8-(1H-imidazol-5-ylmethylene)-7H-pyrrolo[2,3-g]benzothiazol-7-one] | significantly enhanced oHSV-1 titer | – | – |
| O=C(N/N=C/c1ccc([N+](=O)[O-])o1)c1ccc(O)cc1 [nifuroxazide, Benzoic acid, 4-hydroxy-, [(5-nitro-2-furanyl)metylene]hydrazide] | – | around 25% | ~60% |

Reference: patent publication US20190307820A1, “COMPOSITIONS AND METHODS OF USING STAT1/3 INHIBITORS WITH ONCOLYTIC HERPES VIRUS” (priority 2016, published 2019)
